Assay [1] deals with OBA4 (DNA, aptamer) GGGGTGAAACGGTCCCG
The experiment in a line: not stated for this variant (Figure S2). The note with it: 10 mM MgCl2; 10 mM Na2HPO4/KH2PO4; printed NB (no binding); pH 7.4.

In assay [2] the test system is OBAwt-I2 (DNA, aptamer, inosine at 2) GGGGTGAAACGGGTCCCG
Put plainly: inosine substitution (Figure S1). Particulars: 10 mM MgCl2; 10 mM Na2HPO4/KH2PO4; pH 7.4.

The test system of assay [3] is OBAwt-I3 (DNA, aptamer, inosine at 3) GGGGTGAAACGGGTCCCG
The experiment in a line: inosine substitution (Figure S1). The note with it: 10 mM MgCl2; 10 mM Na2HPO4/KH2PO4; pH 7.4.

Assay [4] has as its system OBAwt-I13 (DNA, aptamer, inosine at 13) GGGGTGAAACGGGTCCCG
The experiment in a line: inosine substitution (Figure S1). The note with it: 10 mM MgCl2; 10 mM Na2HPO4/KH2PO4; pH 7.4.

Assay [5] relates to OBAwt (DNA, aptamer) GGGGTGAAACGGGTCCCG
Put plainly: fluorescence polarization (OTA intrinsic fluorescence). The note with it: 10 mM MgCl2; 10 mM Na2HPO4/KH2PO4; pH 7.4, room temperature, 500 nM OTA titrated with aptamer.

The test system of assay [6] is OBA1 (DNA, aptamer) CGGGGTGAAACGGGTCCCG
The description is as above. Particulars: 10 mM MgCl2; 10 mM Na2HPO4/KH2PO4; pH 7.4, room temperature, 500 nM OTA titrated with aptamer.

In assay [7] the test system is OBAwt-I1 (DNA, aptamer, inosine at 1) GGGGTGAAACGGGTCCCG
The experiment in a line: inosine substitution (Figure S1). Particulars: 10 mM MgCl2; 10 mM Na2HPO4/KH2PO4; pH 7.4.

For assay [8], the system named is OBA5 (DNA, aptamer) CCGGGGCGAAGCGGGTCCCGG
Put plainly: fluorescence polarization (OTA intrinsic fluorescence). The note with it: 10 mM MgCl2; 10 mM Na2HPO4/KH2PO4; pH 7.4, room temperature, 500 nM OTA titrated with aptamer. On the technique in general: In fluorescence polarisation assays a small probe gives low polarisation when free and higher when bound to something large.

Assay [9] concerns OBA2 (DNA, aptamer) GGGGCGAAGCGGGTCCCG
The description is as above. Particulars: 10 mM MgCl2; 10 mM Na2HPO4/KH2PO4; pH 7.4, room temperature, 500 nM OTA titrated with aptamer.

For assay [10], the system named is OBAwt-I4 (DNA, aptamer, inosine at 4) GGGGTGAAACGGGTCCCG
The experiment in a line: inosine substitution (Figure S1). Particulars: 10 mM MgCl2; 10 mM Na2HPO4/KH2PO4; pH 7.4.

For assay [11], the system named is OBA6 (DNA, aptamer) GCGGGGCGAAGCGGGTCCCGC
Put plainly: fluorescence polarization (OTA intrinsic fluorescence). Particulars: 10 mM MgCl2; 10 mM Na2HPO4/KH2PO4; pH 7.4, room temperature, 500 nM OTA titrated with aptamer.

Assay [12] concerns OBAwt-I6 (DNA, aptamer, inosine at 6) GGGGTGAAACGGGTCCCG
Put plainly: inosine substitution (Figure S1). The note with it: 10 mM MgCl2; 10 mM Na2HPO4/KH2PO4; pH 7.4.

Assay [13] deals with OBA3 (DNA, aptamer) CGGGGCGAAGCGGGTCCCG
The experiment in a line: solution NMR structure. The note with it: 10 mM MgCl2; 10 mM Na2HPO4/KH2PO4; pH 7.4, 288-310 K.

For assay [14], the system named is OBAwt-I12 (DNA, aptamer, inosine at 12) GGGGTGAAACGGGTCCCG
The experiment in a line: inosine substitution (Figure S1). The note with it: 10 mM MgCl2; 10 mM Na2HPO4/KH2PO4; pH 7.4.

For assay [15], the system named is OBA3 (DNA, aptamer) CGGGGCGAAGCGGGTCCCG
Put plainly: fluorescence polarization (OTA intrinsic fluorescence). Particulars: 10 mM MgCl2; 10 mM Na2HPO4/KH2PO4; pH 7.4, room temperature, 500 nM OTA titrated with aptamer.

For assay [16], the system named is OBAwt-I11 (DNA, aptamer, inosine at 11) GGGGTGAAACGGGTCCCG
Put plainly: inosine substitution (Figure S1). The note with it: 10 mM MgCl2; 10 mM Na2HPO4/KH2PO4; pH 7.4.

Assay [17] relates to OBA2 (DNA, aptamer) GGGGCGAAGCGGGTCCCG
Put plainly: 1H NMR imino spectra. The note with it: 10 mM MgCl2; 10 mM Na2HPO4/KH2PO4; pH 7.4, 2 equivalents of OTB.

Assay [18] relates to OBAwt (DNA, aptamer) GGGGTGAAACGGGTCCCG
Put plainly: 1H NMR imino titration. Particulars: 10 mM Mg2+; 10 mM Na2HPO4/KH2PO4; pH 7.4, 288 K, 0.1 mM aptamer.

Assay [19] concerns OBA1 (DNA, aptamer) CGGGGTGAAACGGGTCCCG
The experiment in a line: 1H NMR imino spectra. Particulars: 10 mM MgCl2; 10 mM Na2HPO4/KH2PO4; pH 7.4, 2 equivalents of OTB.

The subject of assay [20] is OBA3 (DNA, aptamer) CGGGGCGAAGCGGGTCCCG
The experiment in a line: 1H NMR imino spectra. The note with it: 10 mM MgCl2; 10 mM Na2HPO4/KH2PO4; pH 7.4, 2 equivalents of OTB.

Structures are written as SMILES.

As to `C[C@@H]1Cc2c(Cl)cc(C(=O)N[C@@H](Cc3ccccc3)C(=O)O)c(O)c2C(=O)O1`, the binding entry in assay [1], in assay [2], in assay [3], in assay [4], in assay [7] and in assay [10] was “no” each time. Moreover, the binding result in assay [12] was “no”; in assay [13], “yes”; in assay [14], “yes”; in [16], “no”. The K d came out at 81 ± 2 µM in assay [5]; 5.9 ± 0.1 µM in assay [6]; 1.9 ± 0.1 µM in [8]; 26.2 ± 0.4 µM in assay [9]; 2.4 ± 0.1 µM in assay [11]; 1.4 ± 0.1 µM in assay [15].
Turning to `C[C@@H]1Cc2ccc(C(=O)N[C@@H](Cc3ccccc3)C(=O)O)c(O)c2C(=O)O1`, the binding result is on record as “weak” in assay [17], “no” in [18], “weak” in assay [19] and “weak” in [20].

The record behind these values is publication PMC6582339 (2019).
